Assay results from patent publication US5348953A, “Substituted azetidinones as anti-inflammatory and antidegenerative agents” (Merck & Co., Inc., priority 1992, dated 1994).

biological target: T1, Human Polymorphonuclear Leukocyte Elastase (Homo sapiens, UniProt P08246); test: Inhibition of human polymorphonuclear leukocyte elastase via hydrolysis of Boc-AAPAN or Boc-AAPVN; type: biochemical; settings: pH 7.5; second order rate constant for inactivation; Formula A, M n-propyl, R2 4-methyl (TABLE 1); read-out: kobs /[I]
T1 construct: Crude extract of human polymorphonuclear leukocytes (PMN) containing elastase activity; from tissue; host or cells: human polymorphonuclear leukocytes (crude extract)
T1 sequence (P08246 30-267): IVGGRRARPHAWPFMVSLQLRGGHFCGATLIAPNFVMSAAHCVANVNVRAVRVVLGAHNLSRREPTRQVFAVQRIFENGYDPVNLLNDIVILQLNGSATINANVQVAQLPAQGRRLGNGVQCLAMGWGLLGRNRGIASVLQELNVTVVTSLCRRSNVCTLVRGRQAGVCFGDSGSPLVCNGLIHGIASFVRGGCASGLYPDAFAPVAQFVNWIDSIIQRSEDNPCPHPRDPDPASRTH
Procedure: Enzyme Assays for the Inhibition of Human Polymorphonuclear Leukocyte
Elastase Via Hydrolysis of
N-t-Boc-alanyl-alanyl-prolylalanine-p-nitroanilide (Boc-AAPAN) or
N-t-Boc-alanyl-prolylvaline-p-nitroanilide (Boc-AAPVN) Reagent:
0.05M TES (N-tris[hydroxymethyl]methyl-2-amino-ethanesulfonic acid) Buffer, pH 7.5.
0.2 mM Boc-AAPAN or Boc-AAPVN.
To prepare substrate, the solid was first dissolved in 10.0 ml DMSO. Buffer at pH 7.5 was then added to a final volume of 100 ml.
Crude extract of human polymorphonuclear leukocytes (PMN) containing elastase activity.
Inhibitors (azetidinones) to be tested dissolved in DMSO just before use.
To 1.0 ml of 0.2 mM Boc-AAPAN in a cuvette, 0.01-0.1 ml of DMSO with or without inhibitor was added. After mixing, a measurement was taken at 410 mμ to detect any spontaneous hydrolysis due to presence of test compound. 0.05 Milliliters of PMN extract was then added and the ΔOD/min at 410 mμ was measured and recorded. Beckman model 35 spectrophotometer was used.
Results in Table I were reported as ID50, effective dosage in micrograms per milliliter (μg/ml) for 50% inhibition of the enzyme activity 2 minutes after zero time.
Results were also expressed as Ki, the micromolar concentration of the inhibitor (μM) giving 50% of the control enzyme activity; or as ^k obs/I which is the second order rate constant in per mole per second for inactivation of the enzyme.
The elastase activity in the crude PMN extract may vary from one preparation to another. A control of each new batch is run, and the volume added in the assay procedure is adjusted according to activity.

| Compound | kinact/KI |
| --- | --- |
| CCC[C@@H](NC(=O)N1C(=O)C(CC)(CC)[C@@H]1OCC(=O)N(CC)CCN(C)C)c1ccc(C)cc1 [Y=N(Et)CH2 CH2; R5=H; R7=Me; R8=Me, 2-(S)-[2-[[2-(Dimethylamino)ethyl]ethylamino]-2-oxoethoxy]-3,3-diethyl-N-[1-(R)-(4-methylphenyl)butyl]-4-oxo-1-azetidinecarboxamide] | 120000 M⁻¹ s⁻¹ |
| CCC[C@@H](NC(=O)N1C(=O)C(CC)(CC)[C@@H]1OCC(=O)N(C)CCN(C(C)C)C(C)C)c1ccc(C)cc1 [Y=N(Me)CH2 CH2; R5=H; R7=iPr; R8=iPr, 2-(S)-[2-[[2-(Diisopropylamino)ethyl]methylamino]-2-oxoethoxy]-3,3-diethyl-N-[1-(R)-(4-methylphenyl)butyl]-4-oxo-1-azetidinecarboxamide] | 115000 M⁻¹ s⁻¹ |
| CCC[C@@H](NC(=O)N1C(=O)C(CC)(CC)[C@@H]1O[C@@H](C)C(=O)N(C)CCN(CC)CC)c1ccc(C)cc1 [Y=N(Me)CH2 CH2; R5=Me; R7=Et; R8=Et, 2-(S)-[2-[[2-(Diethylamino)ethyl]methylamino]-2-oxo-(1-(S)-methyl)ethoxy]-3,3-diethyl-N-[1-(R)-(4-methylphenyl)butyl]-4-oxo-1-azetidinecarboxamide] | 1.8e+06 M⁻¹ s⁻¹ |
| CCC[C@@H](NC(=O)N1C(=O)C(CC)(CC)[C@@H]1OCC(=O)N(CCN(CC)CC)C(C)C)c1ccc(C)cc1 [Y=N(iPr)CH2 CH2; R5=H; R7=Et; R8=Et] | 175000 M⁻¹ s⁻¹ |
| CCC[C@@H](NC(=O)N1C(=O)C(CC)(CC)[C@@H]1OCC(=O)NCCN(CC)CC)c1ccc(C)cc1 [Y=NHCH2 CH2; R5=H; R7=Et; R8=Et, 2-(S)-[2-[[2-(Diethylamino)ethyl]amino]-2-oxoethoxy]-3,3-diethyl-N-[1-(R)-(4-methylphenyl)butyl]-4-oxo-1-azetidinecarboxamide] | 220000 M⁻¹ s⁻¹ |
| CCC[C@@H](NC(=O)N1C(=O)C(CC)(CC)[C@@H]1OCC(=O)N(CC)CC)c1ccc(C)cc1 [Y=co-valent bond; R5=H; R7=Et; R8=Et] | 315000 M⁻¹ s⁻¹ |

Other lines, results leading:

| kinact/KI | Compound |
| --- | --- |
| 1.65e+06 M⁻¹ s⁻¹ | CCC[C@@H](NC(=O)N1C(=O)C(CC)(CC)[C@@H]1O[C@@H](C)C(=O)N(C)CCN(C)C)c1ccc(C)cc1 [Y=N(Me)CH2 CH2; R5=Me; R7=Me; R8=Me, 2-(S)-[2-[[2-(Dimethylamino)ethyl]methylamino]-2-oxo-(1-(S)-methyl)ethoxy]-3,3-diethyl-N-[1-(R)-(4-methylphenyl)butyl]-4-oxo-l-azetidinecarboxamide] |
| 170000 M⁻¹ s⁻¹ | CCC[C@@H](NC(=O)N1C(=O)C(CC)(CC)[C@@H]1OCC(=O)N(CCC)CCN(CC)CC)c1ccc(C)cc1 [Y=N(Pr)CH2 CH2; R5=H; R7=Et; R8=Et, 2-(S)-[2-[[2-(Diethylamino)ethyl]propylamino]-2-oxoethoxy]-3,3-diethyl-N-[1-(R)-(4-methylphenyl)butyl]-4-oxo-1-azetidinecarboxamide] |
| 175000 M⁻¹ s⁻¹ | CCC[C@@H](NC(=O)N1C(=O)C(CC)(CC)[C@@H]1OCC(=O)N(CCN(C)C)C(C)C)c1ccc(C)cc1 [Y=N(iPr)CH2 CH2; R5=H; R7=Me; R8=Me] |
| 115000 M⁻¹ s⁻¹ | CCC[C@@H](NC(=O)N1C(=O)C(CC)(CC)[C@@H]1OCC(=O)NCCN1CCOCC1)c1ccc(C)cc1 [Y=NHCH2 CH2; R5=H; R7 R8=CH2 CH2OCH2 CH2, 2-(S)-[2-[[2-(morpholin-1-yl)ethyl]amino]-2-oxoethoxy]-3,3-diethyl-N-[1-(R)-(4-methylphenyl)butyl]-4-oxo-1-azetidinecarboxamide] |
| 105000 M⁻¹ s⁻¹ | CCC[C@@H](NC(=O)N1C(=O)C(CC)(CC)[C@@H]1OCC(=O)NCCN(C(C)C)C(C)C)c1ccc(C)cc1 [Y=NHCH2 CH2; R5=H; R7=iPr; R8=iPr, 2-(S)-[2-[[2-(Diisopropylamino)ethyl]amino]-2-oxoethoxy]-3,3-diethyl-N-[1-(R)-(4-methylphenyl)butyl]-4-oxo-1-azetidinecarboxamide] |
| 1.35e+06 M⁻¹ s⁻¹ | CCC[C@@H](NC(=O)N1C(=O)C(CC)(CC)[C@@H]1O[C@@H](C)C(=O)NCCN(CC)CC)c1ccc(C)cc1 [Y=NHCH2 CH2; R5=Me; R7=Et; R8=Et, 2-(S)-[2-[[2-(Diethylamino)ethyl]amino]-2-oxo-(1-(S)-methyl)ethoxy]-3,3-diethyl-N-[1-(R)-(4-methyl-phenyl)butyl]-4-oxo-l-azetidinecarboxamide] |
| 1.04e+06 M⁻¹ s⁻¹ | CCC[C@@H](NC(=O)N1C(=O)C(CC)(CC)[C@@H]1O[C@@H](C)C(=O)NCCN(C)C)c1ccc(C)cc1 [Y=NHCH2 CH2; R5=Me; R7=Me; R8=Me, 2-(S)-[2-[[2-(Dimethylamino)ethyl]amino]-2-oxo-(1-(S)-methyl)ethoxy]-3,3-diethyl-N-[1-(R)-(4-methylphenyl)butyl]-4-oxo-1-azetidinecarboxamide] |
| 125000 M⁻¹ s⁻¹ | CCC[C@@H](NC(=O)N1C(=O)C(CC)(CC)[C@@H]1OCC(=O)N(C)C)c1ccc(C)cc1 [Y=co-valent bond; R5=H; R7=Me; R8=Me] |

same assay, conditions: pH 7.5; second order rate constant; Formula A, M n-propyl, R4 piperazine amide with substituent Z; read-out: kobs /[I]

| kinact/KI | Compound |
| --- | --- |
| 150000 M⁻¹ s⁻¹ | CCC[C@@H](NC(=O)N1C(=O)C(CC)(CC)[C@@H]1OCC(=O)N1CCN(C)CC1)c1ccc(C)cc1 [R2=4-Me; R5=H; Z=--Me, 2-(S)-[2-[2-(4-Methyl)piperazin-1-yl]-2-oxoethoxy]-3,-3-diethyl-N-[1-(R)-(4-methylphenyl)-butyl]4-oxo-1-azetidinecarboxamide] |

biological target: T2, HUMAN PROTEINASE 3 (Homo sapiens, UniProt P24158); test: Inhibition of PR3 catalyzed hydrolysis of MeO-Succ-AAPV-pNA; type: biochemical; settings: 45 mM TES pH 7.5, 450 mM NaCl, 10% DMSO; 0.2 mM substrate (TABLE 2); read-out: SORC (second order rate constant, kobs/I)
T2 sequence (P24158 28-256): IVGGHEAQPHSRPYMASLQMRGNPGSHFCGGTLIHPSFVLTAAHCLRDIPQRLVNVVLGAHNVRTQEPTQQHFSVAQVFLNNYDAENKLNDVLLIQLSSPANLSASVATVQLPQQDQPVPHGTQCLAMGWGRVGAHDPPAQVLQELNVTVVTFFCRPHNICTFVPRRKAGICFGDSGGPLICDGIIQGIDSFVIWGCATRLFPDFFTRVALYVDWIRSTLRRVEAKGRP
Procedure: The PR3 catalyzed hydrolysis of MeO-Succ-AAPV-pNA was measured in a spectrophotometer monitoring absorbance at 410 n,m. The enzymatic activity was determined in 45 mM TES at pH 7.5, 450 mM NaCl and 10% DMSO. The data were fit by non-linear regression to equation 1 to obtain the initial rates. The nonlinear progress curves observed with time dependent inhibitors were fit to equation 2 to obtain the first order rate constant Kobs. Results were expressed as kobs/I which is the second order rate constant (SORC) in per mole per second for inactivation of the enzyme.
EQN 2 Y=vs *X+[(vo -vs) (1-e^(-K.sbsp.o^*X))/Ko
Kinetic constants for the inhibition of PR3 catalyzed hydrolysis of 0.2 mM MoO-succ-AAPV-pNA were determined by varying the concentration of inhibitor present in the reaction vessel.

| kinact/KI | Compound |
| --- | --- |
| 13700 M⁻¹ s⁻¹ | CCC[C@@H](NC(=O)N1C(=O)C(CC)(CC)[C@@H]1OCC(=O)N(CC)CCN(C)CCOC)c1ccc(C)cc1 [2-(S)-[2-[[2-((2-Methoxyethyl)-methylamino)ethyl]ethylamino]-2-oxoethoxy]-3,3-diethyl-N-[1-(R)-(4methylphenyl)butyl]-4-oxo-1-azetidinecarboxamide] |
| 14800 M⁻¹ s⁻¹ | CCC[C@@H](NC(=O)N1C(=O)C(CC)(CC)[C@@H]1OCC(=O)N1CCN(C)CC1)c1ccc(C)cc1 [R2=4-Me; R5=H; Z=--Me, 2-(S)-[2-[2-(4-Methyl)piperazin-1-yl]-2-oxoethoxy]-3,-3-diethyl-N-[1-(R)-(4-methylphenyl)-butyl]4-oxo-1-azetidinecarboxamide] |
| 7900 M⁻¹ s⁻¹ | CCC[C@@H](NC(=O)N1C(=O)C(CC)(CC)[C@@H]1OCC(=O)N(CC)CCN(C)C)c1ccc(C)cc1 [Y=N(Et)CH2 CH2; R5=H; R7=Me; R8=Me, 2-(S)-[2-[[2-(Dimethylamino)ethyl]ethylamino]-2-oxoethoxy]-3,3-diethyl-N-[1-(R)-(4-methylphenyl)butyl]-4-oxo-1-azetidinecarboxamide] |

tested on: not listed separately; test: Extended storage of the L-malic acid salt at rt; type: physicochemical; settings: not given
Text: NMR (CDCl3 δ from TMS): 0.9-1.0 (m, 6H), 1.0-1.1 (m, 6H), 1.2-1.4 (m, 2H), 1.6-1.95(2 m's, 6H), 2.30 (s, 3H), 2.6-2.9 (2 m's, 4H), 2.92 and 2.94 (2 s, 3H), 3.2-3.4 (m, 2H), 3.52 (br t, 2H, J=8 Hz), 4.5-4.8 (m, 3H), 5.11 (br s, 1H), 7.04 (2 d's, 1H, J=8Hz), 7.13 (br S, 4H).
The material prepared as described above in Example 20, Step A was hydrogenated as described in Example 19, Step B to afford the L-malic acid salt of 2-(S)-[2-[[2-aminoethyl]-ethylamino]-2-oxoethoxy]-3,3-diethyl-N-[1-(R)-(4- methylphenyl)butyl]-4-oxo-1-azetidinecarboxamide as an oil. […] This process could be evaluated by HPLC analysis.

| Compound | stability upon storage |
| --- | --- |
| CCC[C@@H](NC(=O)N1C(=O)C(CC)(CC)[C@@H]1OCC(=O)N(CC)CCNC)c1ccc(C)cc1 [Example 19, 2-(S)-[2-[[2-Methylaminoethyl]-ethylamino]-2-oxoethoxy]-3,3-diethyl-N-[1-(R)-(4-methylphenyl)butyl]-4-oxo-1-azetidinecarboxamide] | rearranges to an isomeric equilibrium mixture |
| CCC[C@@H](NC(=O)N1C(=O)C(CC)(CC)[C@@H]1OCC(=O)N(CC)CCN)c1ccc(C)cc1 [Example 20, 2-(S)-[2-[[2-Aminoethyl]-ethylamino]-2-oxoethoxy]-3,3-diethyl-N-[1-(R)-(4-methylphenyl)butyl]-4-oxo-1-azetidinecarboxamide] | rearranged upon storage to an equilibrium mixture of isomers |
